We go through one molecule from ChEMBL document CHEMBL3046319, “PCR-RFLP detection of the E198A mutation conferring resistance to benzimidazoles in field isolates of Monilinia laxa from Greece” (Crop Prot, 2012).

Structures are written as SMILES. Converted amounts (≈) assume the structure as drawn. The source made the active and inactive calls. The calls are words filed in the database; no cut-off is given here.

The test system of assay [1] is Monilinia laxa. The assay can be described thus: Fungicidal activity against Monilinia laxa isolate MLC3 assessed as reduction in mycelial growth rate at 1 to 10 ug/ml at 28 degC after 8 days. It counts as functional, organism-based.
Assay [2] relates to Monilinia laxa. Briefly: Fungicidal activity against Monilinia laxa isolate MLC3 assessed as reduction in mycelial growth rate at 1 to 10 ug/ml at 25 to 28 degC. The format is functional, organism-based.
The subject of assay [3] is Monilinia laxa. The assay can be described thus: Fungicidal activity against Monilinia laxa isolate MLP2 assessed as mean number of conidia produced in the colony at 25 degC after 12 days by haemocytometer. It counts as functional.
In assay [4] the test system is Monilinia laxa. The assay can be described thus: Fungicidal activity against Monilinia laxa isolate MLBO2 assessed as mean number of conidia produced in the colony at 25 degC after 12 days by haemocytometer. It counts as functional.
For assay [5], the system named is Monilinia laxa. Briefly: Fungicidal activity against Monilinia laxa isolate MLC5 assessed as reduction in mycelial growth rate at 1 to 10 ug/ml at 31 degC after 5 days. It counts as functional, organism-based.
The subject of assay [6] is Monilinia laxa. Briefly: Fungicidal activity against Monilinia laxa isolate MLNS2 assessed as reduction in mycelial growth rate at 1 to 10 ug/ml at 28 degC after 8 days. It counts as functional, organism-based.
For assay [7], the system named is Monilinia laxa. The assay can be described thus: Fungicidal activity against Monilinia laxa isolate MLX5 assessed as virulence in prune fruits assessed as virulence treated 10 min prior to mycelial inoculation at 24 degC after 10 days relative to isolate MLX1by pathogenicity bioassay. It counts as functional.
For assay [8], the system named is Monilinia laxa. Briefly: Fungicidal activity against Monilinia laxa isolate MLC4 assessed as reduction in mycelial growth rate at 25 degC after 4 days. The format is functional, organism-based. Conditions: isolate MLC4, 96 h.
The subject of assay [9] is Monilinia laxa. The assay can be described thus: Fungicidal activity against Monilinia laxa isolate MLP7 assessed as reduction in mycelial growth rate at 25 degC after 4 days. It counts as functional, organism-based. As to conditions: isolate MLP7, 96 h.
Assay [10] has as its system Monilinia laxa. The assay can be described thus: Fungicidal activity against Monilinia laxa isolate KX2 assessed as reduction in mycelial growth rate at 1 to 10 ug/ml at 31 degC after 5 days. The format is functional, organism-based.
Assay [11] has as its system Monilinia laxa. The assay can be described thus: Fungicidal activity against Monilinia laxa isolate MLG1 assessed as mean number of conidia produced in the colony at 25 degC after 12 days by haemocytometer. The format is functional.
Assay [12] deals with Monilinia laxa. Briefly: Fungicidal activity against Monilinia laxa isolate MLBO6 assessed as reduction in mycelial growth rate at 1 to 10 ug/ml at 31 degC after 5 days. It counts as functional, organism-based.
The subject of assay [13] is Monilinia laxa. Briefly: Fungicidal activity against Monilinia laxa isolate MLC2 assessed as reduction in mycelial growth rate at 1 to 10 ug/ml at 31 degC after 5 days. The format is functional, organism-based.
Assay [14] relates to Monilinia laxa. The assay can be described thus: Fungicidal activity against Monilinia laxa isolate MLK6 assessed as reduction in mycelial growth rate at 1 to 10 ug/ml at 28 degC after 8 days. It counts as functional, organism-based.
Assay [15] relates to Monilinia laxa. The assay can be described thus: Fungicidal activity against Monilinia laxa isolate MLX1 assessed as reduction in mycelial growth rate at 1 to 10 ug/ml at 25 to 28 degC. The format is functional, organism-based.
Assay [16] has as its system Monilinia laxa. The assay can be described thus: Fungicidal activity against Monilinia laxa isolate MLK4A assessed as reduction in mycelial growth rate at 1 to 10 ug/ml at 31 degC after 5 days. It counts as functional, organism-based.
The test system of assay [17] is Monilinia laxa. Briefly: Fungicidal activity against Monilinia laxa isolate MLC1 assessed as reduction in mycelial growth rate at 1 to 10 ug/ml at 31 degC after 5 days. It counts as functional, organism-based.
For assay [18], the system named is Monilinia laxa. Briefly: Fungicidal activity against Monilinia laxa isolate MLB1 assessed as reduction in mycelial growth rate at 1 to 10 ug/ml at 31 degC after 5 days. It counts as functional, organism-based.
In assay [19] the test system is Monilinia laxa. The assay can be described thus: Fungicidal activity against Monilinia laxa isolate MLG1 assessed as mean mycelial colony diameter at 25 degC after 4 days. The format is functional.
Assay [20] deals with Monilinia laxa. Briefly: Fungicidal activity against Monilinia laxa isolate KX1 assessed as reduction in mycelial growth rate at 1 to 10 ug/ml at 31 degC after 5 days. The format is functional, organism-based.
Assay [21] has as its system Monilinia laxa. Briefly: Fungicidal activity against Monilinia laxa isolate MLX5 assessed as reduction in mycelial growth rate at 25 degC after 4 days. It counts as functional, organism-based. Conditions: isolate MLX5, 96 h.

As to `COC(=O)Nc1nc2ccccc2[nH]1` [CARBENDAZIM], the inhibition entry in assay [1], in [2], in [6], in assay [14] and in assay [15] was “inactive” throughout. The Activity is recorded as 4.15 /cm2 in assay [3]; 3.54 /cm2 in [4]; 96.29% in [7]; 5.85 /cm2 in assay [11]; 25.55 mm in [19]. Also, the inhibition result in [5], in assay [10], in assay [12], in [13], in assay [16] and in [17] was “Active” each time. For the same molecule, the inhibition entry in assay [18] and in assay [20] was “Active” in each case. For the same molecule, the figures for the EC50 in assay [8], in [9] and in [21] were 0.09 mg/L (≈ 0.471 µM), > 50 mg/L and > 50 mg/L, respectively.
